16 compounds from patent US20230365537A1, “POLO LIKE KINASE 4 INHIBITORS” (ORIC Pharmaceuticals, Inc., priority 2021, published 2023) can be followed below.

The target of assay [1] is human recombinant Aurora B (Homo sapiens (Human), UniProt Q96GD4). Briefly: Aurora B Kinase Biochemical Assay (ADP-Glo). Particulars: ratio of Aurora B IC50 to PLK4 IC50 (selectivity). A digest of the protocol:
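IC50 derived by four-parameter nonlinear fit of ADP-Glo luminescence (ADP produced). Compound was preincubated 15 min at RT with 20 nM recombinant human Aurora B, in 50 mM HEPES pH 7.5, 10 mM MgCl2, 1 mM EGTA, 1 mM DTT, 0.01% Brij-35/BSA.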
A general note: ADP-Glo turns the ADP formed in a reaction into a luminescent signal.

The target of a further assay is human recombinant PLK4 (Homo sapiens (Human), UniProt O00444). In words: PLK4 Biochemical Assay (ADP-Glo). Particulars: 0.5 nM PLK4, 8.0 µM ATP, 4.7 µM MBP, 6 hours at RT. The gist of the method:
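Luminescent ADP-Glo detection quantified ADP production, with ATP depletion for 40 min and detection for 30 min at room temperature. Compound and PLK4 (1.0 nM stock addition) were preincubated 15 min in HEPES pH 7.5 buffer containing MgCl2, EGTA, DTT, Brij-35 and BSA. IC50 values were obtained by four-parameter nonlinear regression.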

Assay [2] addresses human recombinant Aurora A (Homo sapiens (Human), UniProt O14965). In words: Aurora A Kinase Biochemical Assay (ADP-Glo). Particulars: ratio of Aurora A IC50 to PLK4 IC50 (selectivity).
A further assay relates to CHP-134 cells. In words: CHP134 CellTiter-Glo (CTG) Assay. Format: cell-based. Particulars: Homo sapiens, CHP-134, 120 h, 5 days, viable cells by CellTiter-Glo. The gist of the method: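 Nine-point 1:3 dilution series, diluted into growth media, added in quadruplicate to CHP-134 cells plated 16 h earlier at 200 cells/well.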
On the technique in general: ATP-based viability assays read luminescence as a measure of living cells.

SMILES strings stand for the structures.

Sequence of human recombinant PLK4 (O00444 whole entry): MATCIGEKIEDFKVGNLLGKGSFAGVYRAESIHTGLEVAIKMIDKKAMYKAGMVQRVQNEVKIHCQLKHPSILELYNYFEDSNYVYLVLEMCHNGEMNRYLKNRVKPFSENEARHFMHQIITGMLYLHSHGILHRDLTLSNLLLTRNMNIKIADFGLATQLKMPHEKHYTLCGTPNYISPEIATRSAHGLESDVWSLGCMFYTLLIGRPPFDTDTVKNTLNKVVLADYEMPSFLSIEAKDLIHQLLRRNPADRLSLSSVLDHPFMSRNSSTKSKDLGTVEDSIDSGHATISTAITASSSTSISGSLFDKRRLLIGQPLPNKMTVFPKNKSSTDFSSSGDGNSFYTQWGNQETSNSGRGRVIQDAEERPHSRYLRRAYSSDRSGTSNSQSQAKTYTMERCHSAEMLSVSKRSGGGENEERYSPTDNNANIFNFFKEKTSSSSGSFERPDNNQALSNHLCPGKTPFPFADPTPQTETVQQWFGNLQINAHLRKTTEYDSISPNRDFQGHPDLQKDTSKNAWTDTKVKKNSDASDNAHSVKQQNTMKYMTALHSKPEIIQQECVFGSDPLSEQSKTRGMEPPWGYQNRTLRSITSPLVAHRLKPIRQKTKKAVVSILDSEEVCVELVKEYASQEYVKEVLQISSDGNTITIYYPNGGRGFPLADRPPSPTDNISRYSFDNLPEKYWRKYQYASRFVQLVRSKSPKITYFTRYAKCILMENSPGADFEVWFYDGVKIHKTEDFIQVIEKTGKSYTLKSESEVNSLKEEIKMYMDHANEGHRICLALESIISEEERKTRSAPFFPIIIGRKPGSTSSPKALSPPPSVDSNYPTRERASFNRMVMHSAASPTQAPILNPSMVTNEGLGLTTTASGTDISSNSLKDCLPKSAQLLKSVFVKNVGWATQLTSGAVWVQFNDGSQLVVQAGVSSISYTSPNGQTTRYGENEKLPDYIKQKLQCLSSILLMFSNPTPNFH
Sequence of human recombinant Aurora A (O14965 whole entry): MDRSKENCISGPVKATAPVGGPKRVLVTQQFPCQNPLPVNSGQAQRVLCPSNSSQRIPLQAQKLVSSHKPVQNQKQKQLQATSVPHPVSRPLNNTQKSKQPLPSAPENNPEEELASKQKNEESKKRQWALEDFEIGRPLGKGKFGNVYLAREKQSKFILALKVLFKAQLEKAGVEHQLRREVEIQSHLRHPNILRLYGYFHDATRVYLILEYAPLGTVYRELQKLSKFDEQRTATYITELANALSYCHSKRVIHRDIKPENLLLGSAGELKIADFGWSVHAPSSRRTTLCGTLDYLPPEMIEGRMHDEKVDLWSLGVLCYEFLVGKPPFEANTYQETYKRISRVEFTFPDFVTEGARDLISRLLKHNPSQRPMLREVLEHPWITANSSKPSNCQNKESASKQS
Sequence of human recombinant Aurora B (Q96GD4 whole entry): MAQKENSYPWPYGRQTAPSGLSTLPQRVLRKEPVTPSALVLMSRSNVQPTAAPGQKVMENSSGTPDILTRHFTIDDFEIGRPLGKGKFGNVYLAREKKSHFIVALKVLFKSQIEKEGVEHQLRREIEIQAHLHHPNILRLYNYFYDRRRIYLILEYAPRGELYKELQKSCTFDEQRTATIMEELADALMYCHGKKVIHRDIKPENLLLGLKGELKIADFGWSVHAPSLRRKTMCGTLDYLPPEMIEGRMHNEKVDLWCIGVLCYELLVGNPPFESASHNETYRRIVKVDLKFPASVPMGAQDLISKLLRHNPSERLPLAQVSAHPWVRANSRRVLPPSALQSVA

As to `CNC(=O)c1ccc(OC)c(Nc2n[nH]c3cc([C@@H]4C[C@@]45C(=O)Nc4ccc(OC)cc45)ccc23)c1` [Example 177, 4-methoxy-3-({6-[(1R,2S)-5′-methoxy-2′-oxo-1′,2′-dihydrospiro[cyclopropane-1,3′-indol]-2-yl]-1H-indazol-3-yl}amino)-N-methylbenzamide], the “[Aurora B IC50 (nM)]/[PLK4 IC50 (nM)]” value in assay [1] is 11750.8813. Further, the IC50 was 4.25 nM on human recombinant PLK4 and 3680 nM with CHP-134 cells. In assay [2], the “[Aurora A IC50 (nM)]/[PLK4 IC50 (nM)]” value worked out at 11750.8813.
Consider `COc1ccc2c(c1)[C@]1(C[C@H]1c1ccc3c(Nc4cc(S(=O)(=O)C(C)C)ccc4OC)n[nH]c3c1)C(=O)N2` [Example 178, (1R,2S)-5′-methoxy-2-{3-[2-methoxy-5-(propane-2-sulfonyl)anilino]-1H-indazol-6-yl}spiro[cyclopropane-1,3′-indol]-2′(1′H)-one], for which, in assay [1], the “[Aurora B IC50 (nM)]/[PLK4 IC50 (nM)]” value stood at 15179.1135. The IC50 amounted to 3.29 nM at human recombinant PLK4 and 631 nM in the assay on CHP-134 cells. The “[Aurora A IC50 (nM)]/[PLK4 IC50 (nM)]” value in assay [2] came to 15179.1135.
In the case of `COc1ccc2c(c1)[C@]1(C[C@H]1c1ccc3c(Nc4cc(S(=O)(=O)N(C)C)ccc4OC)n[nH]c3c1)C(=O)N2` [Example 179, 4-methoxy-3-({6-[(1R,2S)-5′-methoxy-2′-oxo-1′,2′-dihydrospiro[cyclopropane-1,3′-indol]-2-yl]-1H-indazol-3-yl}amino)-N,N-dimethylbenzene-1-sulfonamide], the “[Aurora B IC50 (nM)]/[PLK4 IC50 (nM)]” value in assay [1] is reported as 5384.4135. For the same compound, the IC50 on human recombinant PLK4 came out at 3.81 nM; in the assay on CHP-134 cells, 948 nM. Further, the “[Aurora A IC50 (nM)]/[PLK4 IC50 (nM)]” value in assay [2] was determined as 13119.9160.
Regarding `COc1ccc2c(c1)[C@]1(C[C@H]1c1ccc3c(Nc4cc(C(=O)N5CCOCC5)ccc4OC)n[nH]c3c1)C(=O)N2` [Example 180, (1R,2S)-5′-methoxy-2-{3-[2-methoxy-5-(morpholine-4-carbonyl)anilino]-1H-indazol-6-yl}spiro[cyclopropane-1,3′-indol]-2′(1′H)-one], the “[Aurora B IC50 (nM)]/[PLK4 IC50 (nM)]” value in assay [1] stood at 1996.8465. Besides, the IC50 at human recombinant PLK4 was determined as 2.85 nM; in the assay on CHP-134 cells, 741 nM. Further, the “[Aurora A IC50 (nM)]/[PLK4 IC50 (nM)]” value in assay [2] came out at 5455.5011.
On to `COc1ccc2c(c1)[C@]1(C[C@H]1c1ccc3c(Nc4ccc(C(=O)N5CCOCC5)nc4OC)n[nH]c3c1)C(=O)N2` [Example 183, (1R,2S)-5′-methoxy-2-(3-{[2-methoxy-6-(morpholine-4-carbonyl)pyridin-3-yl]amino}-1H-indazol-6-yl)spiro(cyclopropane-1,3′-indol]-2′(1′H)-one], for which, in assay [1], the “[Aurora B IC50 (nM)]/[PLK4 IC50 (nM)]” value was 322.5703. The IC50 at human recombinant PLK4 came to 1.25 nM; in the assay with CHP-134 cells it was 125 nM. Besides, the “[Aurora A IC50 (nM)]/[PLK4 IC50 (nM)]” value in assay [2] is reported as 534.2169.
`COc1ccc2c(c1)[C@]1(C[C@H]1c1ccc3c(Nc4ccc(C(=O)N5CC(F)(F)C5)nc4OC)n[nH]c3c1)C(=O)N2` [Example 184, (1R,2S)-2-(3-{[6-(3,3-difluoroazetidine-1-carbonyl)-2-methoxypyridin-3-yl]amino}-1H-indazol-6-yl)-5′-methoxyspiro[cyclopropane-1,3′-indol]-2′(1′H)-one]: the “[Aurora B IC50 (nM)]/[PLK4 IC50 (nM)]” value in assay [1] is given as 7144.8985. Besides, the IC50 on human recombinant PLK4 stood at 7 nM; in the assay on CHP-134 cells it was 882 nM. For the same compound, the “[Aurora A IC50 (nM)]/[PLK4 IC50 (nM)]” value in assay [2] was 7144.8985.
In the case of `COc1ccc2c(c1)[C@]1(C[C@H]1c1ccc3c(Nc4ccc(C(=O)N5CCC(F)(F)CC5)nc4OC)n[nH]c3c1)C(=O)N2` [Example 185, (1R,2S)-2-(3-{[6-(4,4-difluoropiperidine-1-carbonyl)-2-methoxypyridin-3-yl]amino}-1H-indazol-6-yl)-5′-methoxyspiro[cyclopropane-1,3′-indol]-2′(1′H)-one], the “[Aurora B IC50 (nM)]/[PLK4 IC50 (nM)]” value in assay [1] came out at 180.1636. In addition, the IC50 on human recombinant PLK4 turned out to be 1.96 nM; in the assay with CHP-134 cells, 134 nM. Moreover, in assay [2], the “[Aurora A IC50 (nM)]/[PLK4 IC50 (nM)]” value was found to be 3240.7975.
For `COc1ccc2c(c1)[C@]1(C[C@H]1c1cc(F)c3c(Nc4nc(SC)ncc4OC)n[nH]c3c1)C(=O)N2` [Example 186, (1R,2S)-2-(4-fluoro-3-{[5-methoxy-2-(methylsulfanyl)pyrimidin-4-yl]amino}-1H-indazol-6-yl)-5′-methoxyspiro[cyclopropane-1,3′-indol]-2′(1′H)-one], in assay [1], the “[Aurora B IC50 (nM)]/[PLK4 IC50 (nM)]” value came out at 232.5464. In addition, the IC50 at human recombinant PLK4 was found to be 1.78 nM; with CHP-134 cells it was 537 nM. Besides, the “[Aurora A IC50 (nM)]/[PLK4 IC50 (nM)]” value in assay [2] is recorded as 641.9337.
In the case of `COc1ccc2c(c1)[C@]1(C[C@H]1c1ccc3c(Nc4nc(OC)ncc4C)n[nH]c3c1)C(=O)N2` [Example 187, (1R,2S)-5′-methoxy-2-{3-[(2-methoxy-5-methylpyrimidin-4-yl)amino]-1H-indazol-6-yl}spiro[cyclopropane-1,3′-indol]-2′(1′H)-one], in assay [1], the “[Aurora B IC50 (nM)]/[PLK4 IC50 (nM)]” value stood at 112.2793. Besides, the IC50 on human recombinant PLK4 amounted to 6.12 nM; in the assay on CHP-134 cells, 563 nM. Further, the “[Aurora A IC50 (nM)]/[PLK4 IC50 (nM)]” value in assay [2] amounted to 109.5814.
On to `COc1ccc2c(c1)[C@]1(C[C@H]1c1ccc3c(Nc4ccc(C(=O)N5CC6(COC6)C5)nc4OC)n[nH]c3c1)C(=O)N2` [Example 188, (1R,2S)-5′-methoxy-2-(3-{[2-methoxy-6-(2-oxa-6-azaspiro[3.3]heptane-6-carbonyl)pyridin-3-yl]amino}-1H-indazol-6-yl)spiro[cyclopropane-1,3′-indol]-2′(1′H)-one], for which, in assay [1], the “[Aurora B IC50 (nM)]/[PLK4 IC50 (nM)]” value stood at 191.7065. Further, the IC50 amounted to 6.27 nM at human recombinant PLK4 and 760 nM in the assay with CHP-134 cells. Further, the “[Aurora A IC50 (nM)]/[PLK4 IC50 (nM)]” value in assay [2] worked out at 7974.4817.
For the compound `COc1ccc2c(c1)[C@]1(C[C@H]1c1ccc3c(Nc4nc(N5CCC(F)(F)CC5)ncc4OC)n[nH]c3c1)C(=O)N2` [Example 189, (1R,2S)-2-(3-{[2-(4,4-difluornpiperidin-1-yl)-5-methoiypyrimidin-4-yl]amino}-1H-indazol-6-yl)-5′-methoxyspiro[cyclopropane-1,3′-indol]-2′(1′H)-one], in assay [1], the “[Aurora B IC50 (nM)]/[PLK4 IC50 (nM)]” value is recorded as 514.5455. The IC50 came out at 1.04 nM on human recombinant PLK4 and 112 nM with CHP-134 cells. In assay [2], the “[Aurora A IC50 (nM)]/[PLK4 IC50 (nM)]” value is recorded as 383.7321.
For `COc1ccc2c(c1)[C@]1(C[C@H]1c1ccc3c(Nc4nc(N5CCS(=O)(=O)CC5)ncc4OC)n[nH]c3c1)C(=O)N2` [Example 190, 4-[5-methoxy-4-({6-[(1R,2S)-5′-methoxy-2′-oxo-1′,2′-dihydrospiro[cyclopropane-1,3′-indol]-2-yl]-1H-indazol-3-yl}amino)pyrimidin-2-yl]-1λ6-thiomorpholine-1,1-dione] the same measures were 279.1432, 2.66 nM, 5120 nM and 129.5378.
On to `CNC(=O)c1ccc(Nc2n[nH]c3cc([C@@H]4C[C@@]45C(=O)Nc4ccc(OC)cc45)ccc23)c(OC)n1` [Example 191, 6-methoxy-5-({6-[(1R,2S)-5′-methoxy-2′-oxo-1′,2′-dihydrospiro[cyclopropane-1,3′-indol]-2-yl]-1H-indazol-3-yl}amino)-N-methylpyridine-2-carboxamide], for which the “[Aurora B IC50 (nM)]/[PLK4 IC50 (nM)]” value in assay [1] is reported as 84.9956. Also, the IC50 was 2.27 nM on human recombinant PLK4 and 494 nM in the assay on CHP-134 cells. Also, the “[Aurora A IC50 (nM)]/[PLK4 IC50 (nM)]” value in assay [2] worked out at 2416.5931.
`COc1ccc2c(c1)[C@]1(C[C@H]1c1ccc3c(Nc4nc(N5CC6(COC6)C5)ncc4OC)n[nH]c3c1)C(=O)N2` [Example 192, (1R,2S)-5′-methoxy-2-(3-{[5-methoxy-2-(2-oxa-6-azaspiro[3.3]heptan-6-yl)pyrimidin-4-yl]amino}-1H-indazol-6-yl)spiro[cyclopropane-1,3′-indol]-2′(1′H)-one]: the “[Aurora B IC50 (nM)]/[PLK4 IC50 (nM)]” value in assay [1] is reported as 678.4625. Moreover, the IC50 on human recombinant PLK4 was found to be 1.64 nM; in the assay with CHP-134 cells, 1180 nM. Besides, in assay [2], the “[Aurora A IC50 (nM)]/[PLK4 IC50 (nM)]” value came out at 2835.2654.
In the same order, the values of `COc1ccc2c(c1)[C@]1(C[C@H]1c1ccc3c(Nc4ncc(S(C)(=O)=O)cc4OC)n[nH]c3c1)C(=O)N2` [Example 193, (1R,2S)-2-(3-{[5-(methanesulfonyl)-3-methoxypyridin-2-yl]amino}-1H-indazol-6-yl)-5′-methoxyspiro[cyclopropane-1,3′-indol]-2′(1′H)-one] are 138.8889, 1.13 nM, 390 nM and 1463.8448.
With `COc1ccc2c(c1)[C@]1(C[C@H]1c1ccc3c(Nc4ccc(C(=O)N(C)C(C)C)nc4OC)n[nH]c3c1)C(=O)N2` [Example 194, 6-methoxy-5-({6-[(1R,2S)-5′-methoxy-2′-oxo-1’,2′-dihydrospiro[cyclopropane-1,3′-indol]-2-yl]-1H-indazol-3-yl}amino)-N-methyl-N-(propan-2-yl)pyridine-2-carboxamide], the “[Aurora B IC50 (nM)]/[PLK4 IC50 (nM)]” value in assay [1] is 103.7306. The figures for the IC50 on human recombinant PLK4 and in the assay on CHP-134 cells were 0.965 nM and 126 nM, respectively. Moreover, the “[Aurora A IC50 (nM)]/[PLK4 IC50 (nM)]” value in assay [2] is recorded as 805.6995.

For orientation: IC50 means the concentration that gives 50% inhibition.
